Measured values from patent US20230270753A1, “COMBINATIONS OF GABAA ALPHA 5 AGONISTS AND SV2A INHIBITORS AND METHODS OF USING IN THE TREATMENT OF COGNITIVE IMPAIRMENT” (AGENEBIO, INC., priority 2020, published 2023).

What was measured:
aged-impaired (AI) rats = experiment: Radial Arm Maze task, one-hour delay, levetiracetam (Example 1); type: in vivo, rat
Method: The effects of levetiracetam on the spatial memory retention of aged-impaired (AI) rats were assessed in a Radial Arm Maze (RAM) behavioral task using vehicle control and five different dosage levels of levetiracetam (1.25 mg/kg/day, 2.5 mg/kg/day, 5 mg/kg/day, 10 mg/kg/day and 20 mg/kg/day). RAM behavioral tasks were performed on ten AI rats. All six treatment conditions were tested on all ten rats, as described above for the MWM test. The RAM apparatus used consisted of eight equidistantly spaced arms. An elevated maze arm (7 cm width×75 cm length) projected from each facet of an octagonal center platform (30 cm diameter, 51.5 cm height). […] A food well (4 cm diameter, 2 cm deep) was located at the distal end of each arm. Froot Loops' (Kellogg Company) were used as rewards. […] Numerous extra maze cues surrounding the apparatus were also provided. The AI rats were initially subjected to a pre-training test (Chappell et al. Neuropharmacology 37: 481-487, 1998). […] In the habituation phase, rats were familiarized to the maze for an 8-minute session on four consecutive days. […] To counterbalance any potential bias, drug effect was assessed using ascending-descending dose series, i.e., the dose series was given first in an ascending order and then repeated in a descending order. […]

aMCI subjects [1] = experiment: fMRI activity of medial temporal lobe subregions during the explicit 3-alternative forced choice task (Examples 2 and 3); type: in vivo, human
Method: A within-subjects trial of 8 weeks duration, involving 17 amnestic MCI (aMCI) subjects and 17 age-matched controls with a low dose treatment of levetiracetam is conducted. […] Age-matched control subjects treated with placebo serve as a further control. […] The […]

aMCI subjects [2] = experiment: Explicit 3-alternative forced choice task performance (Examples 2 and 3); type: in vivo, human
aMCI subjects [3] = experiment: Neuropsychological tests outside the scanner (Buschke, Benton, Verbal Paired Associates); type: in vivo, human; settings: levetiracetam 125 mg twice a day for two weeks
somatostatin in DG hilus = experiment: Somatostatin immunohistochemistry, hilar interneuron counts (Example 5); type: in vivo, rat; settings: levetiracetam 10 mg/kg/day in osmotic minipumps for four weeks; aged-impaired rats
From the text: Tissue was labeled with anti-SOM antiserum (Santa Cruz Biotechnology; cat. no. SC7819-P) using an established immunoperoxidase protocol and tissue sections were processed concurrently to minimize inter-replication variability (Haberman et al., 2009). The anti-SOM antiserum can detect somatostatin. Briefly, sections were washed in 0.1M phosphate-buffered saline (PBS) to remove cryoprotectant, and endogenous peroxidases were quenched in 0.3% H2O2 in PBS. After additional PBS washes, sections were blocked in 5% normal horse serum in PBS with 0.3% Triton. Sections were then incubated with primary antibody at a dilution of 1:1600 in PBS containing 0.15% Triton and 3% normal serum for 72 hours at 4° C. with agitation. […] The secondary antibody was detected with avidin-biotin complex (ABC Elite; Vector Laboratories Inc., Burlingame, Calif.) and the avidin-biotin complex was visualized with nickel-enhanced diaminobenzadine (Vector Laboratories Inc., Burlingame, Calif.). […]
Interneuron quantification was performed using a Zeiss Axioplan 2 microscope equipped with a motorized stage. […] Neuron counts were analyzed as the total number of hilar interneurons per hippocampal section for each rat.

[4] = system: reelin in Entorhinal Cortex (EC2); experiment: Reelin mRNA in situ hybridization in entorhinal cortex (Example 5); type: in vivo, rat
[5] = following oral administration; cited from earlier work

CC[C@@H](C(N)=O)N1CCCC1=O [levetiracetam, (2S)-2-(2-oxopyrrolidin-1-yl)butanamide]
effective doses of levetiracetam in the animal model (radial arm maze errors) (aged-impaired (AI) rats; AI rats, levetiracetam on its own): 5 to 10 mg/kg | reduction of the number of errors in the radial arm maze (aged-impaired (AI) rats; levetiracetam on its own at 1.25 mg/kg or 2.5 mg/kg): not at 1.25 mg/kg or 2.5 mg/kg | DG/CA3 hyperactivity during memory judgments (aMCI subjects [1]; levetiracetam 62.5 mg BID for two weeks, aMCI subjects (N=20)): does not significantly reduce | entorhinal cortex (EC) activity during memory judgments (aMCI subjects [1]; levetiracetam 125 mg twice a day for two weeks, aMCI subjects): increases EC activity | DG/CA3 activity during lure stimuli correctly identified as similar (aMCI subjects [1]; levetiracetam 125 mg twice a day for two weeks, vs placebo in same aMCI subjects): reduces DG/CA3 hyper-activity | DG/CA3 hyperactivity during memory judgments (aMCI subjects [1]; levetiracetam 250 mg BID for two weeks, aMCI subjects (N=17)): does not significantly reduce | performance in the explicit 3-alternative forced choice task (aMCI subjects [2]; levetiracetam 62.5 mg BID for two weeks): improves significantly | performance in the explicit 3-alternative forced choice task (aMCI subjects [2]; levetiracetam 125 mg twice a day for two weeks): improves significantly | performance in the explicit 3-alternative forced choice task (aMCI subjects [2]; levetiracetam 250 mg BID for two weeks): does not significantly improve | performance in Buschke Selective Reminding Test-Delayed Recall, Benton Visual Retention Test, Verbal Paired Associates Test-Recognition and -Delayed Recall (aMCI subjects [3]): fail to rescue performance | levels of somatostatin in DG hilus (SOM-immunoreactive hilar neurons) (somatostatin in DG hilus): restores the levels of somatostatin in DG hilus | reelin mRNA expression in the lateral entorhinal cortex vs AI-VEH ([4]; levetiracetam 10 mg/kg/day for 28 days, AI rats): significantly increased the expression of reelin | levels of reelin in Entorhinal Cortex (EC2) ([4]; levetiracetam 10 mg/kg/day in osmotic minipumps for four weeks, aged-impaired rats): restores the levels of reelin in Entorhinal Cortex (EC2) | time of peak plasma concentrations [5]: about 1 hour
